Source: patent US20030027141A1, “Combinatorial oligonucleotide PCR: a method for rapid, global expression analysis” (Board of Regents, The University of Texas System, priority 1999, published 2003)

How the values were obtained:
[1] = system: HME87 line of normal human mammary epithelial cells; assay: COP analysis of gene expression after carcinogen (BPDE) treatment; format: cell-based
[2] = system: HME87 line of normal human mammary epithelial cells; assay: Cell cycle parameters after BPDE treatment; format: cell-based
Method: Data for several genes whose expression did change at one or more time points is listed in Table 11 with two prominent examples shown in FIG. 20. The most dramatic change was in the expression of the transcription factor ATF3, which increased 8-9 fold at 4 and 10 h, then dropped to a 2.4-fold increase at 24 h. Changes in ATF3 expression in response to damage induced by BPDE or related compounds have not previously been described, and it will be very interesting to determine both the mechanism and the consequences of this induction. The p21/WAF1 gene, a downstream target of p53, is a mediator of G1 arrest in response to DNA damage (Levine, 1997). […] Thus, the COP analyses performed in this system have given a variety of clues concerning mechanisms operative in cells soon after BPDE treatment.

[3] = system: HME87 line of normal human mammary epithelial cells; settings: 30 min BPDE treatment; for at least 48 h
[4] = system: HME87 line of normal human mammary epithelial cells; assay: DNA damage in BPDE-treated cells; format: cell-based; settings: 30 min BPDE treatment
Method: Control cultures were treated with tetrahydrofuran only.

[5] = at one or more time points after BPDE treatment

OC1c2cc3ccc4cccc5ccc(c2C2OC2C1O)c3c45 (racemic) [BPDE, ±7r,8t-dihydroxy-9,10t-epoxy-7,8,9,10-tetrahydro-benzo[a]pyrene]
ACTB expression E/C ([1]; 4 h after BPDE treatment): 1.1 ± 0.2 | ATF3 expression E/C ([1]; 4 h after BPDE treatment): 7.8 ± 4.0 | Beclin expression E/C ([1]; 4 h after BPDE treatment): 2.1 ± 1.4 | CEBPE expression E/C ([1]; 4 h after BPDE treatment): 0.9 ± 0.3 | GADD45 expression E/C ([1]; 4 h after BPDE treatment): 2.1 ± 0.7 | LMNA expression E/C ([1]; 4 h after BPDE treatment): 0.7 ± 0.2 | RPL23a expression E/C ([1]; 4 h after BPDE treatment): 0.6 ± 0.1 | RPL30 expression E/C ([1]; 4 h after BPDE treatment): 0.8 ± 0.1 | RPL35 expression E/C ([1]; 4 h after BPDE treatment): 1.2 ± 0.3 | RPP1 expression E/C ([1]; 4 h after BPDE treatment): 1.4 ± 0.1 | RPS7 expression E/C ([1]; 4 h after BPDE treatment): 1.1 ± 0.2 | RPS15a expression E/C ([1]; 4 h after BPDE treatment): 1.0 ± 0.3 | RPS26 expression E/C ([1]; 4 h after BPDE treatment): 1.2 ± 0.3 | RPS29 expression E/C ([1]; 4 h after BPDE treatment): 1.1 ± 0.2 | TP53 expression E/C ([1]; 4 h after BPDE treatment): 1.1 ± 0.4 | p21 expression E/C ([1]; 4 h after BPDE treatment): 1.0 ± 0.1 | RPS27 expression E/C ([1]; 4 h after BPDE treatment, E=BPDE, C=solvent only): 0.9 ± 0.3 | ACTB expression E/C ([1]; 10 h after BPDE treatment): 0.9 ± 0.2 | ATF3 expression E/C ([1]; 10 h after BPDE treatment): 9.2 ± 3.9 | BTF3 expression E/C ([1]; 10 h after BPDE treatment): 1.0 ± 0.2 | Beclin expression E/C ([1]; 10 h after BPDE treatment): 2.0 ± 1.1 | GADD45 expression E/C ([1]; 10 h after BPDE treatment): 1.9 ± 0.7 | LMNA expression E/C ([1]; 10 h after BPDE treatment): 1.1 ± 0.3 | PGK expression E/C ([1]; 10 h after BPDE treatment): 1.0 ± 0.2 | RPL23a expression E/C ([1]; 10 h after BPDE treatment): 1.1 ± 0.3 | RPL30 expression E/C ([1]; 10 h after BPDE treatment): 1.0 ± 0.1 | RPL35 expression E/C ([1]; 10 h after BPDE treatment): 1.1 ± 0.4 | RPP1 expression E/C ([1]; 10 h after BPDE treatment): 1.0 ± 0.4 | RPS7 expression E/C ([1]; 10 h after BPDE treatment): 1.4 ± 0.5 | RPS15a expression E/C ([1]; 10 h after BPDE treatment): 1.4 ± 0.6 | RPS16 expression E/C ([1]; 10 h after BPDE treatment): 0.8 ± 0.1 | RPS26 expression E/C ([1]; 10 h after BPDE treatment): 1.3 ± 0.5 | RPS27 expression E/C ([1]; 10 h after BPDE treatment): 1.2 ± 0.4 | RPS29 expression E/C ([1]; 10 h after BPDE treatment): 1.3 ± 0.6 | TP53 expression E/C ([1]; 10 h after BPDE treatment): 0.9 ± 0.1 | p21 expression E/C ([1]; 10 h after BPDE treatment): 1.1 ± 0.2 | ACTB expression E/C ([1]; 24 h after BPDE treatment): 1.3 ± 0.4 | ATF3 expression E/C ([1]; 24 h after BPDE treatment): 2.4 ± 0.7 | BTF3 expression E/C ([1]; 24 h after BPDE treatment): 0.9 ± 0.2 | CEBPE expression E/C ([1]; 24 h after BPDE treatment): 1.0 ± 0.3 | GADD45 expression E/C ([1]; 24 h after BPDE treatment): 0.8 ± 0.4 | IMPD expression E/C ([1]; 24 h after BPDE treatment): 0.8 ± 0.2 | LMNA expression E/C ([1]; 24 h after BPDE treatment): 0.9 ± 0.3 | MYC expression E/C ([1]; 24 h after BPDE treatment): 1.2 ± 0.5 | NFKB expression E/C ([1]; 24 h after BPDE treatment): 1.5 ± 0.4 | PGK expression E/C ([1]; 24 h after BPDE treatment): 1.1 ± 0.2 | RPL23a expression E/C ([1]; 24 h after BPDE treatment): 1.0 ± 0.2 | RPL30 expression E/C ([1]; 24 h after BPDE treatment): 1.0 ± 0.2 | RPL35 expression E/C ([1]; 24 h after BPDE treatment): 1.2 ± 0.6 | RPP1 expression E/C ([1]; 24 h after BPDE treatment): 1.7 ± 1.0 | RPS7 expression E/C ([1]; 24 h after BPDE treatment): 1.7 ± 0.8 | RPS15a expression E/C ([1]; 24 h after BPDE treatment): 1.2 ± 0.3 | RPS16 expression E/C ([1]; 24 h after BPDE treatment): 0.9 ± 0.2 | RPS26 expression E/C ([1]; 24 h after BPDE treatment): 1.5 ± 0.6 | RPS27 expression E/C ([1]; 24 h after BPDE treatment): 0.9 ± 0.2 | RPS29 expression E/C ([1]; 24 h after BPDE treatment): 1.7 ± 1.2 | SL1 expression E/C ([1]; 24 h after BPDE treatment): 1.0 ± 0.3 | TP53 expression E/C ([1]; 24 h after BPDE treatment): 0.8 ± 0.3 | p21 expression E/C ([1]; 24 h after BPDE treatment): 2.3 ± 0.7 | increase in expression of transcription factor ATF3 ([1]; at 4 and 10 h after BPDE treatment): 8-9 fold | increase in expression of transcription factor ATF3 ([1]; at 24 h after BPDE treatment): 2.4 fold | increase of p21/WAF1 gene expression ([1]; at 24 h after BPDE treatment): about 2 fold | expression of beclin (protein related to apoptosis) [1, 5]: upregulated | expression of transcription factor CP2 [1, 5]: upregulated | induction of p21/WAF1 gene ([1]; early times after BPDE treatment): not induced | expression of the majority of over 450 genes analyzed ([1]; one or more time points after BPDE treatment): no significant changes in expression | G1 arrest ([2]; 4 and 10 h after BPDE treatment): no G1 arrest | G1 arrest ([2]; by 24 h after BPDE treatment): appear to be a G1 arrest | toxicity of treatment [3]: not demonstrably toxic | DNA damage in the treated cells [4]: induces a high level of DNA damage
